According to patent US9907859B2 (priority 2010, dated 2018):

How the values were obtained:
in vivo [1] = details: both, cynomolgus monkey; for AUC(0-inf): AUCINF—obs; for bioavailability: cynomolgus, po
in vivo [2] = details: mouse, po

## O=C(NN1C(=O)C2C3C=CC(C4CC34)C2C1=O)c1ccc(C(F)(F)F)cc1 (stereo not drawn) [ST-246, 4-trifluoromethyl-N-(3,3a,4,4a,5,5a,6,6a-octahydro-1,3-dioxo-4,6-ethenocycloprop[f]isoindol-2(1H)-yl)-benzamide]
In vivo [1]; iv, 1 mg/kg
  Cmax: 0.384 ± 0.112 µg/mL
  Tmax: 4 h
In vivo [1]; iv, 1 mg/kg, T1/2
  half-life: 6.6 ± 6 h
In vivo [1]; iv, 3 mg/kg
  AUC(0-t): 5.65 ± 0.784 µg·h/mL
  AUC(0-inf): 5.83 ± 0.87 µg·h/mL
  Cmax: 1.05 ± 0.185 µg/mL
  Tmax: 4 h
In vivo [1]; iv, 3 mg/kg, CL
  clearance: 0.523 L/h/kg
In vivo [1]; iv, 3 mg/kg, T1/2
  half-life: 8.5 ± 3.2 h
In vivo [1]; iv, 10 mg/kg
  AUC(0-t): 21.1 ± 3.45 µg·h/mL
  AUC(0-inf): 21.3 ± 3.4 µg·h/mL
  Cmax: 4.4 ± 0.935 µg/mL
  Tmax: 4 h
In vivo [1]; iv, 10 mg/kg, CL
  clearance: 0.478 L/h/kg
In vivo [1]; iv, 10 mg/kg, T1/2
  half-life: 8.6 ± 1.3 h
In vivo [1]; iv, 15 mg/kg
  AUC(0-inf): 32.5 ± 5.7 µg·h/mL
  Cmax: 7.36 ± 1.47 µg/mL
  Tmax: 4 h
In vivo [1]; iv, 15 mg/kg, CL
  clearance: 0.351 L/h/kg
In vivo [1]; iv, 15 mg/kg, T1/2
  half-life: 9.1 ± 2.6 h
In vivo [1]; iv, 20 mg/kg
  AUC(0-inf): 59.6 ± 10.1 µg·h/mL
  Cmax: 11.8 ± 2 µg/mL
  Tmax: 4 h
In vivo [1]; iv, 20 mg/kg, CL
  clearance: 0.353 L/h/kg
In vivo [1]; iv, 20 mg/kg, T1/2
  half-life: 8.7 ± 2.5 h
In vivo [1]; iv, 30 mg/kg
  AUC(0-inf): 100 ± 18 µg·h/mL
  Cmax: 20.1 ± 4.2 µg/mL
  Tmax: 4 h
In vivo [1]; iv, 30 mg/kg, CL
  clearance: 0.307 L/h/kg
In vivo [1]; iv, 30 mg/kg, T1/2
  half-life: 7.8 ± 0.7 h
In vivo [1]; iv, clearance
  clearance: ~0.5 L/h/kg
In vivo [1]; iv, elimination half-lives
  half-life: 6.6 to 9.1 h
In vivo [1]; iv, terminal elimination half-life
  half-life: 6.6 to 8.6 h
In vivo [1]; terminal elimination half-life
  half-life: 8.9 h
In vivo [1]; 3 mg/kg
  bioavailability: 77%
In vivo [1]; 20 mg/kg
  bioavailability: 31%
In vivo [1]; 30 mg/kg
  bioavailability: 31%
In vivo [2]; female, BALB/c
  half-life: 2.2 to 4.5 h
In vivo [2]; female, BALB/c, 30 mg/kg
  CL/F: 0.102 L/h/kg
  half-life: 2.4 h
  Cmax: 37.5 µg/mL
In vivo [2]; female, BALB/c, 30 mg/kg, AUC0-24
  AUC(0-t): 292 µg·h/mL
In vivo [2]; female, BALB/c, 30 mg/kg, AUC0-24 hr
  AUC(0-t): 292 µg·h/mL
In vivo [2]; female, BALB/c, 100 mg/kg
  CL/F: 0.219 L/h/kg
  half-life: 2.2 h
  Cmax: 43.8 µg/mL
In vivo [2]; female, BALB/c, 100 mg/kg, AUC0-24 hr
  AUC(0-t): 456 µg·h/mL
In vivo [2]; female, BALB/c, 300 mg/kg
  CL/F: 0.438 L/h/kg
  half-life: 4.1 h
  Cmax: 64 µg/mL
In vivo [2]; female, BALB/c, 300 mg/kg, AUC0-24 hr
  AUC(0-t): 669 µg·h/mL
In vivo [2]; female, BALB/c, 1000 mg/kg
  CL/F: 1.13 L/h/kg
  half-life: 4.5 h
  Cmax: 66 µg/mL
In vivo [2]; female, BALB/c, 1000 mg/kg, AUC0-24 hr
  AUC(0-t): 852 µg·h/mL
In vivo [2]; female, 100 mg/kg, AUC0-24
  AUC(0-t): 456 µg·h/mL
In vivo [2]; female, 300 mg/kg, AUC0-24
  AUC(0-t): 669 µg·h/mL
In vivo [2]; female, 300 mg/kg
  Cmax: 64 µg/mL
In vivo [2]; female, 500 mg/kg, AUC0-24
  AUC(0-t): 515 µg·h/mL
In vivo [2]; female, 500 mg/kg
  Cmax: 56.6 µg/mL
In vivo [2]; female, 600 mg/kg, AUC0-24
  AUC(0-t): 854 µg·h/mL
In vivo [2]; female, 600 mg/kg
  Cmax: 95.3 µg/mL
In vivo [2]; female, 1000 mg/kg
  Cmax: 66.3 µg/mL
In vivo [2]; female, 2000 mg/kg, AUC0-24
  AUC(0-t): 607 µg·h/mL
In vivo [2]; female, 2000 mg/kg
  Cmax: 69.9 µg/mL
In vivo [2]; male, BALB/c, 30 mg/kg, AUC0-24
  AUC(0-t): 241 µg·h/mL
In vivo [2]; male, BALB/c, 30 mg/kg
  Cmax: 30.4 µg/mL
In vivo [2]; male, BALB/c, 100 mg/kg
  Cmax: 38.4 µg/mL
In vivo [2]; male, 100 mg/kg, AUC0-24
  AUC(0-t): 343 µg·h/mL
In vivo [2]; male, 300 mg/kg, AUC0-24
  AUC(0-t): 484 µg·h/mL
In vivo [2]; male, 300 mg/kg
  Cmax: 48.5 µg/mL
In vivo [2]; male, 500 mg/kg, AUC0-24
  AUC(0-t): 413 µg·h/mL
In vivo [2]; male, 500 mg/kg
  Cmax: 36.6 µg/mL
In vivo [2]; male, 600 mg/kg, AUC0-24
  AUC(0-t): 765 µg·h/mL
In vivo [2]; male, 600 mg/kg
  Cmax: 82.8 µg/mL
In vivo [2]; male, 1000 mg/kg
  Cmax: 61.1 µg/mL
In vivo [2]; male, 2000 mg/kg, AUC0-24
  AUC(0-t): 508 µg·h/mL
In vivo [2]; male, 2000 mg/kg
  Cmax: 50.9 µg/mL
